23 molecules from ChEMBL document CHEMBL1151244, “Synthesis of A-seco derivatives of betulinic acid with cytotoxic activity” (J Nat Prod, 2004) can be followed below.

As a reminder, the IC50 is the concentration that inhibits the measured activity by half. Lower therefore signals higher potency.

The structures appear in SMILES notation.

What all share (format): functional, cell-based
One assay concerns HT-29. Put plainly: Cytotoxicity against human HT-29 cells after 72 hrs by MTT assay. Particulars: HT-29, 72 h. (Tetrazolium assays rely on reduction of a dye to a coloured formazan, in cell work by metabolically active cells.)
The next assay has as its system CCRF-CEM. Put plainly: Cytotoxicity against human CEM cells after 72 hrs by MTT assay.
Assay [1] relates to K562. As to the kind of experiment: Cytotoxicity against paclitaxel-resistant human K562 cells after 72 hrs by MTT assay. The following applies: K562, 72 h.
The subject of assay [2] is K562. As to the kind of experiment: Cytotoxicity against human K562 cells after 72 hrs by MTT assay. Particulars: K562, 72 h.
The next assay deals with PC-3. As to the kind of experiment: Cytotoxicity against human PC3 cells after 72 hrs by MTT assay. The following applies: PC-3, 72 h.
For another assay, the system named is A549. As to the kind of experiment: Cytotoxicity against human A549 cells after 72 hrs by MTT assay. The following applies: A549, 72 h.
Another assay has as its system DU-145. Put plainly: Cytotoxicity against human DU145 cells after 72 hrs by MTT assay. The following applies: DU-145, 72 h.
The next assay has as its system MCF7. As to the kind of experiment: Cytotoxicity against human MCF7 cells after 72 hrs by MTT assay. Particulars: MCF7, 72 h.
The test system of another assay is SK-MEL-2. Put plainly: Cytotoxicity against human SK-MEL-2 cells after 72 hrs by MTT assay. Particulars: SK-MEL-2, 72 h.

Turning to `C=C(C)[C@@H]1CC[C@]2(C(=O)OC)CC[C@]3(C)[C@H](CC[C@@H]4[C@@]5(C)C=C(OC)C(=O)C(C)(C)[C@@H]5CC[C@]43C)[C@@H]12`, the IC50 is 19 µM in the assay on HT-29; 5 µM in the assay on CCRF-CEM; 10 µM with K562 [1]; 11 µM in the assay on K562 [2]; 20 µM with PC-3.

Regarding `C=C(C)[C@@H]1CC[C@]2(C(=O)O)CC[C@]3(C)[C@H](CC[C@@H]4[C@@]5(C)C=C(OC(C)=O)C(=O)C(C)(C)[C@@H]5CC[C@]43C)[C@@H]12`, the IC50 in the assay with A549 turned out to be 11 µM; in the assay with DU-145 it was 18 µM; in the assay with HT-29 it was 7 µM; with CCRF-CEM, 20 µM; with K562 [1], 16 µM; in the assay with MCF7, 17 µM. Also, the IC50 is 5 µM with K562 [2], 24 µM with SK-MEL-2 and 11 µM with PC-3.

On to `C=C(C)[C@@H]1CC[C@]2(C(=O)OC)CC[C@]3(C)[C@H](CC[C@@H]4[C@@](C)(CC(=O)O)[C@H](C(C)(C)C(=O)O)CC[C@]43C)[C@@H]12`, for which the IC50 in the assay with HT-29 came to 88 µM; in the assay with CCRF-CEM, 113 µM; in the assay with K562 [1], 75 µM; with K562 [2], 77 µM; in the assay on PC-3, 63 µM.

Consider `C=C(C)[C@@H]1CC[C@]2(C(=O)O)CC[C@]3(C)[C@H](CC[C@@H]4[C@@]5(C)CC[C@H](O)C(C)(C)[C@@H]5CC[C@]43C)[C@@H]12` [BETULINIC ACID], for which the IC50 was found to be 146 µM with A549; 196 µM in the assay with DU-145; 89 µM with HT-29; 27 µM in the assay with CCRF-CEM; 112 µM in the assay with K562 [1]; 143 µM with MCF7. Also, the 50% inhibitory concentration (IC50) in the assay on K562 [2] is 56 µM; in the assay on SK-MEL-2, 21 µM; in the assay with PC-3, 91 µM.

Regarding `C=C(C)[C@@H]1CC[C@]2(C(=O)O)CC[C@]3(C)[C@H](CC[C@@H]4[C@@]5(C)[C@@H](O)OC(=O)C(C)(C)[C@@H]5CC[C@]43C)[C@@H]12`, the IC50 is 58 µM in the assay with HT-29; 96 µM in the assay with CCRF-CEM; 81 µM in the assay with K562 [1]; 81 µM in the assay with K562 [2]; 79 µM in the assay on PC-3.

In the case of `C=C(C)[C@@H]1CC[C@]2(COC(C)=O)CC[C@]3(C)[C@H](CC[C@@H]4[C@@](C)(CCOC(C)=O)[C@H](C(C)(C)COC(C)=O)CC[C@]43C)[C@@H]12`, half-maximal inhibition with CCRF-CEM (IC50) was put at 250 µM.

Turning to `C=C(C)[C@@H]1CC[C@]2(C(=O)OC(=O)[C@]34CC[C@@H](C(=C)C)[C@@H]3[C@H]3CC[C@@H]5[C@@]6(C)CC[C@H](OC(C)=O)C(C)(C)[C@@H]6CC[C@@]5(C)[C@]3(C)CC4)CC[C@]3(C)[C@H](CC[C@@H]4[C@@]5(C)CC[C@H](OC(C)=O)C(C)(C)[C@@H]5CC[C@]43C)[C@@H]12`, the IC50 was 173 µM in the assay with HT-29; 240 µM with CCRF-CEM; 242 µM in the assay with K562 [1]; 104 µM with K562 [2]; 187 µM in the assay on PC-3.

In the case of `C=C(C)[C@@H]1CC[C@]2(C(=O)OC)CC[C@]3(C)[C@H](CC[C@@H]4[C@@]5(C)C=C(OC(C)=O)C(=O)C(C)(C)[C@@H]5CC[C@]43C)[C@@H]12`, the IC50 in the assay with HT-29 was 46 µM; in the assay with CCRF-CEM, 91 µM; in the assay with K562 [1], 25 µM; in the assay on K562 [2], 60 µM; with PC-3, 98 µM.

Consider `C=C(C)[C@@H]1CC[C@]2(C(=O)OC)CC[C@]3(C)[C@H](CC[C@@H]4[C@@]5(C)CC(=O)OC(=O)C(C)(C)[C@@H]5CC[C@]43C)[C@@H]12`, for which the IC50 with HT-29 came to 12 µM; in the assay with CCRF-CEM, 7 µM; in the assay on K562 [1], 12 µM; in the assay on K562 [2], 29 µM; in the assay with PC-3 it was 89 µM.

As for `C=C(C)[C@@H]1CC[C@]2(CO)CC[C@]3(C)[C@H](CC[C@@H]4[C@@](C)(CCO)[C@H](C(C)(C)CO)CC[C@]43C)[C@@H]12`, the IC50 came to 11 µM in the assay with HT-29; 20 µM in the assay on CCRF-CEM; 11 µM in the assay with K562 [1]; 9 µM in the assay with K562 [2]; 49 µM in the assay with PC-3.

Regarding `C=C(C)[C@@H]1CC[C@]2(C(=O)O)CC[C@]3(C)[C@H](CC[C@@H]4[C@@]5(C)C=C(O)C(=O)C(C)(C)[C@@H]5CC[C@]43C)[C@@H]12`, the IC50 in the assay with A549 stood at 10 µM; in the assay with DU-145, 23 µM; in the assay on HT-29, 6 µM; with CCRF-CEM it was 4 µM; with K562 [1], 11 µM; in the assay with MCF7, 14 µM. The half-maximal inhibitory concentration (IC50) is 6 µM with K562 [2], 23 µM with SK-MEL-2 and 10 µM in the assay on PC-3.

With `C=C(C)[C@@H]1CC[C@]2(C(=O)OC)CC[C@]3(C)[C@H](CC[C@@H]4[C@@]5(C)CC[C@H](OC(C)=O)C(C)(C)[C@@H]5CC[C@]43C)[C@@H]12`, the IC50 in the assay with HT-29 turned out to be 250 µM; with CCRF-CEM, 16 µM; in the assay with K562 [1], 250 µM; in the assay on K562 [2], 250 µM; in the assay on PC-3, 250 µM.

Regarding `C=C(C)[C@@H]1CC[C@]2(C(=O)OC)CC[C@]3(C)[C@H](CC[C@@H]4[C@@](C)(CC(=O)OC)[C@H](C(C)(C)C(=O)OC)CC[C@]43C)[C@@H]12`, the IC50 in the assay on HT-29 is 99 µM; in the assay on CCRF-CEM it was 250 µM; with K562 [1], 76 µM; in the assay with K562 [2], 104 µM; in the assay with PC-3 it was 245 µM.

Consider `C=C(C)[C@@H]1CC[C@]2(C(=O)OC(C)=O)CC[C@]3(C)[C@H](CC[C@@H]4[C@@]5(C)CC(=O)OC(=O)C(C)(C)[C@@H]5CC[C@]43C)[C@@H]12`, for which, in the assay with CCRF-CEM, the IC50 was determined as 6 µM.

`C=C(C)[C@@H]1CC[C@]2(C(=O)OC)CC[C@]3(C)[C@H](CC[C@@H]4[C@@]5(C)C=C(O)C(=O)C(C)(C)[C@@H]5CC[C@]43C)[C@@H]12`: the IC50 is 11 µM in the assay on A549; 9 µM with DU-145; 6 µM in the assay on HT-29; 23 µM in the assay with CCRF-CEM; 8 µM in the assay with K562 [1]; 6 µM in the assay with MCF7. The IC50 in the assay on K562 [2] is 8 µM; in the assay on SK-MEL-2, 11 µM; in the assay on PC-3, 10 µM.

As to `C=C(C)[C@@H]1CC[C@]2(C(=O)OC)CC[C@]3(C)[C@H](CC[C@@H]4[C@@]5(C)CC[C@H](O)C(C)(C)[C@@H]5CC[C@]43C)[C@@H]12` [METHYL BETULINATE], the IC50 in the assay on HT-29 was found to be 61 µM; in the assay with CCRF-CEM, 150 µM; in the assay on K562 [1], 65 µM; in the assay with K562 [2], 71 µM; in the assay with PC-3, 109 µM.

Take `C=C(C)[C@@H]1CC[C@]2(C(=O)O)CC[C@]3(C)[C@H](CC[C@@H]4[C@@]5(C)CC[C@H](OC(C)=O)C(C)(C)[C@@H]5CC[C@]43C)[C@@H]12`: the IC50 is 24 µM in the assay with HT-29; 200 µM in the assay with CCRF-CEM; 19 µM in the assay on K562 [1]; 18 µM with K562 [2]; 17 µM with PC-3.

Turning to `C=C(C)[C@@H]1CC[C@]2(C(=O)OC)CC[C@]3(C)[C@H](CC[C@@H]4[C@@]5(C)[C@@H](O)OC(=O)C(C)(C)[C@@H]5CC[C@]43C)[C@@H]12`, the IC50 in the assay with HT-29 turned out to be 65 µM; in the assay on CCRF-CEM, 250 µM; with K562 [1], 85 µM; in the assay on K562 [2], 119 µM; in the assay with PC-3, 116 µM.

As for `C=C(C)[C@@H]1CC[C@]2(C(=O)O)CC[C@]3(C)[C@H](CC[C@@H]4[C@@]5(C)CCC(=O)C(C)(C)[C@@H]5CC[C@]43C)[C@@H]12` [BETUNOLIC ACID], the IC50 in the assay with DU-145 is 36 µM; in the assay on CCRF-CEM it was 17 µM; in the assay on K562 [1] it was 17 µM; with MCF7 it was 29 µM.

As to `C=C(C)[C@@H]1CC[C@]2(C(=O)O)CC[C@]3(C)[C@H](CC[C@@H]4[C@@]5(C)CC(=O)OC(=O)C(C)(C)[C@@H]5CC[C@]43C)[C@@H]12`, half-maximal inhibition in the assay with CCRF-CEM (IC50) required 101 µM.

With `C=C(C)[C@@H]1CC[C@]2(C(=O)OC)CC[C@]3(C)[C@H](CC[C@@H]4[C@@]5(C)CCC(=O)C(C)(C)[C@@H]5CC[C@]43C)[C@@H]12` [METHYL BETULONATE], the IC50 came to 250 µM in the assay on HT-29, 250 µM in the assay with K562 [1], 239 µM in the assay on K562 [2] and 250 µM with PC-3.

In the case of `C=C(C)[C@@H]1CC[C@]2(C(=O)O)CC[C@]3(C)[C@H](CC[C@@H]4[C@@](C)(CC(=O)O)[C@H](C(C)(C)C(=O)O)CC[C@]43C)[C@@H]12`, the IC50 with HT-29 came to 219 µM; in the assay with CCRF-CEM, 250 µM; with K562 [1] it was 250 µM; in the assay on K562 [2] it was 145 µM; with PC-3 it was 169 µM.

On to `C=C(C)[C@@H]1CC[C@]2(C(=O)OC(C)=O)CC[C@]3(C)[C@H](CC[C@@H]4[C@@]5(C)CC[C@H](OC(C)=O)C(C)(C)[C@@H]5CC[C@]43C)[C@@H]12`, for which the IC50 in the assay with HT-29 was determined as 110 µM; with CCRF-CEM, 22 µM; in the assay with K562 [1] it was 108 µM; in the assay on K562 [2], 88 µM; in the assay with PC-3, 93 µM.
